Test results: patent publication US20060135773A1, “Trisubstituted nitrogen modulators of tyrosine phosphatases” (priority 2004, published 2006)
Where a name gives a salt, the structure may show the parent alone.

The molecules below were run against T1, PTP-1B (Homo sapiens, UniProt P18031) (assay: pNPP tyrosine phosphatase inhibition assay, PTP-1B). Conditions: pNPP assay, PTP-1B; read-out: Activity Class (IC50 ranges).
T1 construct: PTP-1B (purified, 1 mg/mL) as a 1:250 dilution
T1 sequence (P18031 1-321 limits assumed): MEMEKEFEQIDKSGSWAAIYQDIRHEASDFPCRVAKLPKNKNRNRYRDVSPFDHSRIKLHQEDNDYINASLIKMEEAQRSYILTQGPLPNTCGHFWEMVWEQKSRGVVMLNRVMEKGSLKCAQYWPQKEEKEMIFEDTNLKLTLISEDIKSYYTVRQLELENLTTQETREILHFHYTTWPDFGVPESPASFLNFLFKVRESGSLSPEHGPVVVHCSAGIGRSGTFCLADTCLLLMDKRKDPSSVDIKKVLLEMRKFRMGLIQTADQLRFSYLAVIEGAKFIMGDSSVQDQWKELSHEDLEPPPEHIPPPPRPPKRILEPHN
Format: biochemical
Procedure: The compounds provided herein are evaluated for biological activity as inhibitors of PTP-1B using, for example, a pNPP assay can be used to screen compounds for tyrosine phosphatase inhibitory activity as described in the Examples.
A 5× stock of pNPP (p-nitrophenol phosphate) substrate is prepared as 50 mM pNPP in assay buffer. Various tyrosine phosphatase solutions can be prepared as follows: • PTP-1B (purified, 1 mg/mL) as a 1:250 dilution (to a final concentration of 4:g/mL); • TC-PTP (NEB, 1000 units in 100:L) as a 1:50 dilution (to a final concentration of 2U/10:L (4:g/mL)); • CD45 (Calbiochem, 20:g, 400 units in 100:L) as a 1:50 dilution (to a final concentration of 0.8U/10:L (4:g/mL)); • LAR (NEB, 1000 units in 200:L) as a 1:75 dilution (to a final concentration of 0.7U/10:L (4:g/mL)); and • PTP-β (UBI, #14-350, 10,000 units, 40:g/571:L) as a 1:17.5 dilution (to a final concentration of 10U/10:L (4:g/mL));
The compound to be tested is prepared as 1:16.7 and 1:50 dilutions from stock in a total volume of […] DMSO to give final concentrations of 626 and 200:M. The reaction mixtures are prepared in a 96-well microtiter plate (on ice) as 55:L assay buffer, 5:L of the diluted compound (to a final concentration of 31.3 and 10:M), 20:L of the pNPP substrate solution (to a final concentration of 10 mM) and 20:L PTPase in assay buffer. The reactants are mixed well, the plate placed in a water bath at 30° C. and incubated for 10 minutes. The reaction is then terminated by adding 100:L of 2M K2CO3 per well, and the absorbance is measured at 405 nm by conventional means.
Unless otherwise indicated, this assay was used to determine activity for the selected compounds whose activity is provided in Table 1.

Q: `CCOc1cccc(-c2ccccc2CN(Cc2ccc(C(F)(F)P(=O)(O)O)c(Cl)c2)S(=O)(=O)c2ccccc2OC)c1` [Compound 217, [(2-Chloro-4-{[(3′-ethoxy-biphenyl-2-ylmethyl)-(2-methoxy-benzenesulfonyl)-amino]-methyl}-phenyl)-difluoro-methyl]-phosphonic acid] was tested. Which IC50 did it give?
A: < 0.099 µM

Q: Which IC50 does the source give for `COc1ccccc1S(=O)(=O)N(Cc1ccc(-c2cccc(S(C)(=O)=O)c2)cc1)Cc1ccc(C(F)(F)P(=O)(O)O)c(Cl)c1` [Compound 148, [(2-Chloro-4-{[(3′-methanesulfonyl-biphenyl-4-ylmethyl)-(2-methoxy-benzenesulfonyl)-amino]-methyl}-phenyl)-difluoro-methyl]-phosphonic acid] here?
A: 0.1 to 0.249 µM

Q: For `COc1ccccc1S(=O)(=O)N(Cc1ccc(C(=NO)C(=O)O)cc1)Cc1ccc(S(C)(=O)=O)cc1` [Compound 126, Hydroxyimino-(4-{[(4-methanesulfonyl-benzyl)-(2-methoxy-benzenesulfonyl)-amino]-methyl}-phenyl)-acetic acid], which IC50 is on record?
A: > 25 µM

Q: For `O=C(O)c1ccc(CN(Cc2ccc(C(F)(F)P(=O)(O)O)c(Br)c2)S(=O)(=O)c2ccccc2Cl)cc1` [Compound 107, 4-{[[3-Bromo-4-(difluoro-phosphono-methyl)-benzyl]-(2-chloro-benzenesulfonyl)-amino]-methyl}-benzoic acid], which IC50 is on record?
A: < 0.099 µM

Q: With `COc1ccccc1S(=O)(=O)N(Cc1ccc(N(CC(C)C(=O)O)C(=O)C(=O)O)cc1)Cc1ccc(N(CC(C)C(=O)O)C(=O)C(=O)O)cc1` (centres unmarked) [Compound 223, 3-[(4-{[{4-[(2-Carboxy-propyl)-oxalyl-amino]-benzyl}-(2-methoxy-benzenesulfonyl)-amino]-methyl}-phenyl)-oxalyl-amino]-2-methyl-propionic acid] as the molecule, how does the IC50 read?
A: > 25 µM

Q: How did the IC50 turn out when `O=C(O)c1ccc(CN(Cc2ccc(C(=O)O)c(Br)c2)S(=O)(=O)c2ccccc2)cc1` [Compound 79, 2-bromo-4-([Benzenesulfonyl-(4-carboxybenzyl)-amino]-methyl)-benzoic acid] was run?
A: > 25 µM

Q: `N#Cc1cccc(-c2ccc(CN(Cc3ccc(C(F)(F)P(=O)(O)O)c(Cl)c3)S(=O)(=O)c3ccc(F)cc3Cl)cc2)c1` [Compound 162, [(2-Chloro-4-{[(2-chloro-4-fluoro-benzenesulfonyl)-(3′-cyano-biphenyl-4-ylmethyl)-amino]-methyl}-phenyl)-difluoro-methyl]-phosphonic acid] was tested. Which IC50 did it give?
A: 0.1 to 0.249 µM

Q: For `NC(=O)c1ccccc1S(=O)(=O)N(Cc1ccccc1)Cc1ccc(C(F)(F)P(=O)(O)O)c(Cl)c1` [Compound 192, [(4-{[Benzyl-(2-carbamoyl-benzenesulfonyl)-amino]-methyl}-2-chloro-phenyl)-difluoromethyl]-phosphonic acid], which IC50 is on record?
A: 0.25 to 0.499 µM

Q: Which IC50 does the source give for “(4-{[(4-Cyano-benzyl)-(2-methoxy-benzenesulfonyl)-amino]-methyl}-phenyl)-difluoro-acetic acid [Compound 130]” here?
A: > 25 µM

Q: With `COc1ccccc1S(=O)(=O)N(Cc1ccc(-c2ccc(CO)c(C(=O)O)c2)cc1)Cc1ccc(C(F)(F)P(=O)(O)O)c(Cl)c1` [Compound 200, 5-{4-[({[4-(difluorophosphonomethyl)-3-chlorophenyl]methyl}[(2-methoxyphenyl)sulfonyl]amino)methyl]phenyl}-2-(hydroxymethyl)benzoic acid,trisodium salt] as the molecule, how does the IC50 read?
A: 0.1 to 0.249 µM

Q: Which IC50 does the source give for `O=C(O)c1ccc(CN(Cc2ccc(C(F)(F)P(=O)(O)O)c(Cl)c2)S(=O)(=O)c2ccccc2)cc1` [Compound 235, 4-({Benzenesulfonyl-[3-chloro-4-(difluoro-phosphono-methyl)-benzyl]-amino}-methyl)-benzoic acid] here?
A: 0.25 to 0.499 µM

Q: Which IC50 does the source give for `COC(=O)c1ccc(-c2ccc(CN(Cc3ccc(C(F)(F)P(=O)(O)O)c(Cl)c3)S(=O)(=O)c3ccccc3OC)cc2)cc1F` [Compound 174, 4′-{[[3-Chloro-4-(difluoro-phosphono-methyl)-benzyl]-(2-methoxy-benzenesulfonyl)-amino]-methyl}-3-fluoro-biphenyl-4-carboxylic acid methyl ester] here?
A: 0.1 to 0.249 µM

Q: Which IC50 does the source give for `COc1ccccc1S(=O)(=O)N(Cc1ccc(-c2ccc(O)c(C(=O)O)c2)cc1)Cc1ccc(C(F)(F)P(=O)(O)O)c(Cl)c1` [Compound 156, 4′-{[[3-Chloro-4-(difluoro-phosphono-methyl)-benzyl]-(2-methoxy-benzenesulfonyl)-amino]-methyl}-4-hydroxy-biphenyl-3-carboxylic acid] here?
A: < 0.099 µM

Q: Which IC50 does the source give for `COc1ccccc1S(=O)(=O)N(Cc1ccc(C(=O)O)cc1)Cc1ccc(C(F)(F)P(=O)(O)O)c(Cl)c1` [Compound 233, 4-{[[3-Chloro-4-(difluoro-phosphono-methyl)-benzyl]-(2-methoxy-benzenesulfonyl)-amino]-methyl}-benzoic acid] here?
A: 0.1 to 0.249 µM

Q: For `O=P(O)(O)C(F)(F)c1ccc(CN(Cc2ccc(C(F)(F)P(=O)(O)O)c(Cl)c2)C2CCc3ccccc32)cc1Cl` (centres unmarked) [Compound 232, {[2-Chloro-4-({[3-chloro-4-(difluoro-phosphono-methyl)-benzyl]-indan-1-yl-amino}-methyl)-phenyl]-difluoro-methyl}-phosphonic acid], which IC50 is on record?
A: 0.25 to 0.499 µM

Q: With `CCOC(=O)c1cc(-c2ccc(CN(Cc3ccc(C(F)(F)P(=O)(O)O)c(Cl)c3)S(=O)(=O)c3ccccc3OC)cc2)ccc1Cl` [Compound 175, 4-Chloro-4′-{[[3-chloro-4-(difluoro-phosphono-methyl)-benzyl]-(2-methoxy-benzenesulfonyl)-amino]-methyl}-biphenyl-3-carboxylic acid ethyl ester] as the molecule, how does the IC50 read?
A: 0.25 to 0.499 µM

Q: `COc1ccccc1S(=O)(=O)N(Cc1ccc(C#N)cc1)Cc1ccc(NC(=O)C(=O)O)c(C(=O)O)c1` [Compound 133] was tested. Which IC50 did it give?
A: > 25 µM

Q: Which IC50 does the source give for “{[4-(difluorophosphonomethyl)-3-chlorophenyl]methyl}{[2-(3-ethylphenyl)phenyl]methyl}[(2-methoxyphenyl)sulfonyl]amine [Compound 196]” here?
A: 0.1 to 0.249 µM

Q: How did the IC50 turn out when `COc1ccccc1S(=O)(=O)N(Cc1ccc(OCc2ccccc2)cc1)Cc1ccc(C(F)(F)P(=O)(O)O)c(Cl)c1` [Compound 172, [(4-{[(4-Benzyloxy-benzyl)-(2-methoxy-benzenesulfonyl)-amino]-methyl}-2-chloro-phenyl)-difluoro-methyl]-phosphonic acid] was run?
A: 0.25 to 0.499 µM

Q: For “{[4-(difluorophosphonomethyl)-3-chlorophenyl]methyl}{[2-(4-methoxyphenyl)phenyl]methyl}[(2-methoxyphenyl)sulfonyl]amine [Compound 190]”, which IC50 is on record?
A: < 0.099 µM

Q: With `COc1ccccc1S(=O)(=O)N(Cc1ccc(C(F)(F)P(=O)(O)O)c(Cl)c1)Cc1ccccc1OCCCC(C)C` [Compound 215, {[2-Chloro-4-({(2-methoxy-benzenesulfonyl)-[2-(4-methyl-pentyloxy)-benzyl]-amino}-methyl)-phenyl]-difluoro-methyl}-phosphonic acid] as the molecule, how does the IC50 read?
A: 0.25 to 0.499 µM

Q: With `O=P(O)(O)C(F)(F)c1ccc(CN(Cc2ccc(C(F)(F)P(=O)(O)O)cc2)S(=O)(=O)C=Cc2ccccc2)cc1` [Compound 75, [(4-{[[4-(Difluoro-phosphono-methyl)-benzyl]-(2-phenyl-ethenesulfonyl)-amino]-methyl}-phenyl)-difluoro-methyl]-phosphonic acid] as the molecule, how does the IC50 read?
A: 0.25 to 0.499 µM

Q: How did the IC50 turn out when `COC(=O)c1ccc(CN(Cc2ccc(C(F)(F)P(=O)(O)O)c(Br)c2)S(=O)(=O)c2ccccc2Cl)cc1` [Compound 104, 4-{[[3-Bromo-4-(difluoro-phosphono-methyl)-benzyl]-(2-chloro-benzenesulfonyl)-amino]-methyl}-benzoic acid methyl ester] was run?
A: 0.1 to 0.249 µM

Q: Which IC50 does the source give for `COC(=O)c1ccc(CN(Cc2ccc(C(F)(F)P(=O)(O)O)c(Br)c2)S(=O)(=O)c2ccccc2)cc1` [Compound 30, 4-({Benzenesulfonyl-[3-bromo-4-(difluoro-phosphono-methyl)-benzyl]-amino}-methyl)-benzoic acid methyl ester] here?
A: 0.25 to 0.499 µM

Q: Which IC50 does the source give for “{[4-(difluorophosphonomethyl)-3-chlorophenyl]methyl}[(2-methoxyphenyl)sulfonyl](3-piperidylmethyl)amine [Compound 209]” here?
A: 2.5 to 25 µM

Q: With `COc1ccccc1S(=O)(=O)N(Cc1ccc(C#N)cc1)Cc1ccc(C(O)C(O)C(=O)O)c(Br)c1` (centres unmarked) [Compound 123, 1,2-dihydroxy-3-{2-Bromo-4-[N-(4-cyanobenzyl)-N-(2-methoxy-benzenesulfonyl)aminomethyl]-phenyl}-propionic acid] as the molecule, how does the IC50 read?
A: > 25 µM
